Assay results: BigSolDB 2.1
“And” between values parts separate entries of the source, which are not always exact repeats. Equal values may be shown once.

C1=Cc2nc1c(-c1ccccc1)c1ccc([nH]1)c(-c1ccccc1)c1nc(c(-c3ccccc3)c3ccc([nH]3)c2-c2ccccc2)C=C1
in ethanol
Settings | solubility (mole fraction)
303.2 K | 1.76e-06
313.2 K | 2.31e-06
323.2 K | 3.06e-06
333.2 K | 4.01e-06

O=c1cc[nH]c(=O)[nH]1
Settings | solubility (mole fraction)
in water, 298.15 K | 0.000743

Oc1cc(O)c2cc1Cc1cc(c(O)cc1O)Cc1cc(c(O)cc1O)Cc1cc(c(O)cc1O)C2
in water
Settings | solubility (mole fraction)
278.15 K | 3.22e-06
283.15 K | 4.29e-06
288.15 K | 4.86e-06
293.15 K | 6.26e-06
298.15 K | 6.59e-06
303.15 K | 7.16e-06
308.15 K | 7.68e-06

Nc1ccc(Cl)nn1
in water
Settings | solubility (mole fraction)
293.65 K | 6.28e-05
296.05 K | 7.6e-05
303.05 K | 0.000133
308.65 K | 0.000197
323.35 K | 0.000556
328.45 K | 0.000747
333.15 K | 0.000936

O=P(Oc1ccccc1)(Oc1ccccc1)N1CCN(P(=O)(Oc2ccccc2)Oc2ccccc2)CC1
in dichloromethane
Settings | solubility (mole fraction)
283.15 K | 0.00567
288.15 K | 0.00642
293.15 K | 0.00731
298.15 K | 0.00843
303.15 K | 0.0103
308.15 K | 0.0133

Cc1c(O)c(=O)ccn1C
298.2 K
Settings | solubility (mole fraction)
in NMP | 0.002
in ethanol | 0.0014
in ethylene glycol | 0.00737
in propylene glycol | 0.00563

Settings | solubility (mole fraction)
in PEG-400, 298.2 K | 0.00864

O=[N+]([O-])c1ccc(N/N=C/c2ccc[nH]2)cc1
Settings | solubility (mole fraction)
in water, 298.15 K | 1.73e-07

CC1(C)S[C@@H]2[C@H](NC(=O)COc3ccccc3)C(=O)N2[C@H]1C(=O)[O-].[K+]
in ethanol
Settings | solubility (mole fraction)
278.15 K | 0.00047
283.15 K | 0.000485
293.15 K | 0.000866
298.15 K | 0.00117
303.15 K | 0.00207
308.15 K | 0.0029
313.15 K | 0.00428

Clc1ccc(OCCCBr)cc1
in ethanol
Settings | solubility (mole fraction)
273.15 K | 0.0219
278.15 K | 0.0281
283.15 K | 0.0366
288.15 K | 0.0488
293.15 K | 0.0658
298.15 K | 0.0933
303.15 K | 0.142

CN1C(C(=O)Nc2ccccn2)=C(O)c2sc(Cl)cc2S1(=O)=O
298.15 K
Settings | solubility (mole fraction)
in ethanol | 1.3e-05
in water | 3e-06

C(=N\Nc1ccccc1)/c1cccs1
Settings | solubility (mole fraction)
in water, 298.15 K | 5.19e-07

OCCCCCCO
in ethyl acetate
Settings | solubility (mole fraction)
278.15 K | 0.0148
283.15 K | 0.0274
288.15 K | 0.0387
293.15 K | 0.0512
298.15 K | 0.0834

O=c1[nH]cc(Cl)c(=O)[nH]1
Settings | solubility (mole fraction)
in water, 298.15 K | 0.000308

C1CN2CN3CCN(CN1C3)C2
in water
Settings | solubility (mole fraction)
275 K | 0.0905
277 K | 0.0925
279 K | 0.0946
283 K | 0.0999
288 K | 0.105
293 K | 0.109
298 K | 0.113
303 K | 0.119

O=C1NC(=O)C(c2ccccc2)(c2ccccc2)N1
solubility (mole fraction)
Settings | 293.15 K | 298.2 K | 303.2 K | 308.2 K | 313.15 K | 313.2 K
in NMP | 0.119 | – | – | – | 0.116 | –
in transcutol | – | 0.00133 | 0.00144 | 0.00151 | – | 0.00166
in water | 9.7e-07 | 1.51e-06 | 1.72e-06 | 1.88e-06 | 1.91e-06 | 2.08e-06

Cc1cnc(NC(=O)C2=C(O)c3ccccc3S(=O)(=O)N2C)s1
solubility (mole fraction)
Settings | 293.15 K | 298.15 K | 303.15 K | 308.15 K | 313.15 K
in methanol | 4.02e-05 | 4.87e-05 and 3.93e-05 | 5.88e-05 | 7.04e-05 | 8.46e-05
in water | – | 4.23e-06 | – | – | –

O=C(O)CNCP(=O)(O)O
in water
Settings | solubility (mole fraction)
293.67 K | 0.00112
302.65 K | 0.0014
311.95 K | 0.00174
317.15 K | 0.00202
322.15 K | 0.00226
327 K | 0.0025
332.35 K | 0.00285

COc1ccccc1OCC(O)COC(N)=O (stereo unspecified)
298.15 K
Settings | solubility (mole fraction)
in 1,4-dioxane | 0.00331
in ethanol | 0.00436
in methanol | 0.00425
in propylene glycol | 0.00914
in water | 0.000735

Settings | solubility (mole fraction)
in PEG-400, 298.15 K | 0.0262

Cc1nc2n(c(=O)c1CCN1CCC(c3noc4cc(F)ccc34)CC1)CCCC2
in water
Settings | solubility (mole fraction)
298.15 K | 1e-07
303.15 K | 1e-07
308.15 K | 2e-07
313.15 K | 2e-07
318.15 K | 3e-07
323.15 K | 4e-07
328.15 K | 5e-07
333.15 K | 6e-07

Cc1ncc(CO)c(CO)c1O.Cl
in water
Settings | solubility (mole fraction)
278.15 K | 0.0102
283.15 K | 0.012
288.15 K | 0.014
293.15 K | 0.0165
298.15 K | 0.0187
303.15 K | 0.0215
308.15 K | 0.0245
313.15 K | 0.0288

O=c1ccc2ccccc2o1
in water
Settings | solubility (mole fraction)
298.15 K | 0.000235
303.15 K | 0.000319
308.15 K | 0.000388
313.15 K | 0.000439

c1ccc2cc3ccccc3cc2c1
298.15 K
Settings | solubility (mole fraction)
in 2,2,4-trimethylpentane | 0.00107
in 2-butoxyethanol | 0.00379
in 2-ethoxyethanol | 0.00292
in 2-methoxyethanol | 0.00221
in 2-pentanol | 0.0008
in 2-propoxyethanol | 0.00334
in MTBE | 0.00305
in cyclohexane | 0.00155
in isobutanol | 0.00047
in isopentanol | 0.000727
in isopropanol | 0.000411
in methylcyclohexane | 0.00165
in n-butanol | 0.000801
in n-heptane | 0.00157 and 0.00158
in n-hexane | 0.00127
in n-octane | 0.00184
in n-octanol | 0.00216
in n-pentanol | 0.0011
in n-propanol | 0.000591
in sec-butanol | 0.000585
in tert-amyl alcohol | 0.00079
in tetrahydropyran | 0.0102

C[C@@H]1CC[C@H]2[C@@H](C)C(=O)O[C@@H]3O[C@@]4(C)CC[C@@H]1[C@]32OO4
in ethanol
Settings | solubility (mole fraction)
278.2 K | 0.000998
286.2 K | 0.00181
303.2 K | 0.00297
313.2 K | 0.00457
323.2 K | 0.00801
343.2 K | 0.0159
